We go through eight compounds from ChEMBL document CHEMBL3046929, “Ethyl 4-[2-(6-Methyl-3-pyridyloxy)butyloxy]benzoate, a novel anti-juvenile hormone agent” (2003).

The test system of experiment [1] is Bombyx mori. The experiment in a line: Anti-juvenile activity against newly molted third-instar larval stage of Bombyx mori Shunrei x shougetsu reared on artificial diet assessed as induction of precocious pupation at 100 ug. The experiment is classed as functional, organism-based.
The test system of experiment [2] is Bombyx mori. The experiment in a line: Anti-juvenile activity against newly molted fourth-instar larval stage of Bombyx mori Shunrei x shougetsu reared on artificial diet assessed as induction of precocious pupation at 100 ug. The experiment is classed as functional, organism-based.
For experiment [3], the system named is Bombyx mori. As to the kind of experiment: Anti-juvenile activity against newly molted third-instar larval stage of Bombyx mori Shunrei x shougetsu reared on artificial diet assessed as blackening of cuticle measured after third ecdysis. The class given is functional, organism-based.
Experiment [4] relates to Bombyx mori. The experiment in a line: Anti-juvenile activity against newly molted fourth-instar larval stage of Bombyx mori Shunrei x shougetsu reared on artificial diet assessed as induction of precocious metamorphosis in presence of 20-hydroxyecdysone. The class given is functional.
The test system of experiment [5] is Bombyx mori. The experiment in a line: Anti-juvenile activity against newly molted third-instar larval stage of Bombyx mori Shunrei x shougetsu reared on artificial diet assessed as induction of precocious metamorphosis at 1 ug/larva relative to control. The experiment is classed as functional.
Experiment [6] relates to Bombyx mori. As to the kind of experiment: Anti-juvenile activity against newly molted third-instar larval stage of Bombyx mori Shunrei x shougetsu reared on artificial diet assessed as induction of precocious metamorphosis in presence of juvenile hormone agonist methoprene. The experiment is classed as functional.
The subject of experiment [7] is Bombyx mori. As to the kind of experiment: Anti-juvenile activity against newly molted fourth-instar larval stage of Bombyx mori Shunrei x shougetsu reared on artificial diet assessed as induction of precocious metamorphosis in presence of juvenile hormone agonist methoprene. The experiment is classed as functional.
The subject of experiment [8] is Bombyx mori. As to the kind of experiment: Anti-juvenile activity against newly molted third-instar larval stage of Bombyx mori Shunrei x shougetsu reared on artificial diet assessed as induction of precocious metamorphosis at 100 ug/larva relative to control. The class given is functional.
Experiment [9] has as its system Bombyx mori. The experiment in a line: Anti-juvenile activity against newly molted third-instar larval stage of Bombyx mori Shunrei x shougetsu reared on artificial diet assessed as induction of precocious pupation at 1 to 100 ug/larva. The class given is functional, organism-based.
Experiment [10] deals with Bombyx mori. The experiment in a line: Anti-juvenile activity against newly molted fourth-instar larval stage of Bombyx mori Shunrei x shougetsu reared on artificial diet assessed as induction of precocious pupation. The experiment is classed as functional, organism-based.
The subject of experiment [11] is Bombyx mori. The experiment in a line: Anti-juvenile activity against newly molted third-instar larval stage of Bombyx mori Shunrei x shougetsu reared on artificial diet assessed as induction of precocious metamorphosis in presence of 20-hydroxyecdysone. The class given is functional.
The test system of experiment [12] is Bombyx mori. As to the kind of experiment: Anti-juvenile activity against newly molted third-instar larval stage of Bombyx mori Shunrei x shougetsu reared on artificial diet assessed as induction of precocious metamorphosis at 10 ug/larva relative to control. The experiment is classed as functional.
For experiment [13], the system named is Bombyx mori. As to the kind of experiment: Anti-juvenile activity against newly molted third-instar larval stage of Bombyx mori Shunrei x shougetsu reared on artificial diet assessed as mortality at 100 ug/larva relative to control. The class given is functional.

Activity calls are given as the source filed them. The calls are words filed in the database; no cut-off is given here.

Regarding `CCc1ccc(OCC(CC)Oc2ccc(C)nc2)cc1` (stereo unspecified), the outcome in the experiment with Bombyx mori [1] and with Bombyx mori [2] was inactive.
Take `CCOC(=O)c1ccc(OCC(CC)Oc2ccc(C)nc2)cc1` (stereo unspecified): the result with Bombyx mori [3] was Active. Moreover, the Activity in the experiment on Bombyx mori [4] is 84%; in the experiment with Bombyx mori [5], 0%; with Bombyx mori [6], 0%; with Bombyx mori [7], 0%; in the experiment with Bombyx mori [8], 83%; in the experiment on Bombyx mori [11], 90%. For the same compound, in the experiment with Bombyx mori [12], the Activity is given as 40%. In addition, the result with Bombyx mori [9] and with Bombyx mori [10] was inactive.
As for `CCC(COc1ccc(Cl)cc1)Oc1ccc(C)nc1` (stereo unspecified), the result with Bombyx mori [1] and in the experiment with Bombyx mori [2] was inactive.
As for `CCOC(=O)c1cccc(OCC(CC)Oc2ccc(C)nc2)c1` (stereo unspecified), the outcome in the experiment on Bombyx mori [1] and in the experiment on Bombyx mori [2] was inactive.
In the case of `CCC(COc1cccc(Cl)c1)Oc1ccc(C)nc1` (stereo unspecified), the result with Bombyx mori [1] and in the experiment on Bombyx mori [2] was inactive.
Take `CCc1cccc(OCC(CC)Oc2ccc(C)nc2)c1` (stereo unspecified): the outcome in the experiment with Bombyx mori [1] and in the experiment with Bombyx mori [2] was inactive.
The term mortality denotes the share of the test organisms that died. On to `Cc1ccc(OCCOc2cccc(Cl)c2)cn1`, for which the mortality with Bombyx mori [13] is 100%. The Activity in the experiment on Bombyx mori [12] is on record as 0%.
With `CCOC(=O)c1ccc(OCC(CC)OC(=O)C(C)(C)C)cc1` (stereo unspecified), the Activity in the experiment with Bombyx mori [5] is 0%; in the experiment with Bombyx mori [8], 0%; in the experiment on Bombyx mori [12], 23%. Moreover, the result with Bombyx mori [10] was inactive.
